Source: paper PMC5826112, “Intrapulmonary Pharmacokinetics of Relebactam, a Novel β-Lactamase Inhibitor, Dosed in Combination with Imipenem-Cilastatin in Healthy Subjects” (Antimicrobial Agents and Chemotherapy, 2018)

Assay: Safety and tolerability in healthy subjects
Format: in vivo, human (healthy subjects)
Settings: with imipenem-cilastatin
Source text: The safety and tolerability of relebactam were monitored by clinical assessment of adverse events, measurement of vital signs, and performance of a physical examination, 12-lead electrocardiogram (ECG), and standard laboratory safety tests (hematology, chemistry, and urinalysis). Renal function (established by determination of serum/urine creatinine, serum urea, urine protein, and urine albumin concentrations) and hepatic function (established by determination of serum bilirubin, alanine aminotransferase, and aspartate aminotransferase concentrations) were carefully monitored during the study. The safety of bronchoscopy and BAL was monitored by clinical assessment, including continuous cardiac monitoring and repeated measurements of vital signs, according to the standard operating procedures at the study site. All data were analyzed according to the treatment actually received. Safety and tolerability were assessed in the all-subjects-as-treated (AST) population, defined as all subjects who received at least one dose of study drug.

Q: With `O=C(NC1CCNCC1)[C@@H]1CC[C@@H]2CN1C(=O)N2OS(=O)(=O)O` [relebactam] as the molecule, how does the tolerability read?
A: sufficiently well tolerated
